Results published in patent US8134015B2, “Compound inhibiting in vivo phosphorous transport and medicine containing the same” (Kyowa Hakko Kirin Co., Ltd., priority 2003, dated 2012).

Target: T1, rat NaPi-2b (Rattus norvegicus, UniProt Q9JJ09)
T1 construct: expressed in transfected cells; host or cells: Xenopus oocytes injected with cRNA
T1 sequence (Q9JJ09 1-695): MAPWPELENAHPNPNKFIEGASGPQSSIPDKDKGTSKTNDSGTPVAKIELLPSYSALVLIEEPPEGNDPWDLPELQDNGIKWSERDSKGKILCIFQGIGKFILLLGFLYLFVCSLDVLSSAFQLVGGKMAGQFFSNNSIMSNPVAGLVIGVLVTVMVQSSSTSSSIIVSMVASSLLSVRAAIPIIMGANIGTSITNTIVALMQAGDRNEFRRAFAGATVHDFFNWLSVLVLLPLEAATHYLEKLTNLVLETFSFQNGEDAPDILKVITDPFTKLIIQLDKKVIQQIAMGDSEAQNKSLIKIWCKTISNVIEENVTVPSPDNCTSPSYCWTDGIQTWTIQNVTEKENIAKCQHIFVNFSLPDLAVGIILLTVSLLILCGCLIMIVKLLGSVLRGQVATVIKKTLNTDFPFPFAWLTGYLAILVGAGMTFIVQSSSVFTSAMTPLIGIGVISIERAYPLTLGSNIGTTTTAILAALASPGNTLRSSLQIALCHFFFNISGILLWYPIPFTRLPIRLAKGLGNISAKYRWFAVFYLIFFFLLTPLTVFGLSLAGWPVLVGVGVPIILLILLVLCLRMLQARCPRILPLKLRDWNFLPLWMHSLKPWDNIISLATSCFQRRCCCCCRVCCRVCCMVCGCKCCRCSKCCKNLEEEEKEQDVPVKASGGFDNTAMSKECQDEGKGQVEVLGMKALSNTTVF
Test: Sodium-dependent phosphate uptake of Xenopus oocytes which expressed NaPi-2b (32P)
Format: cell-based
Conditions: for inhibition at 300 µM: phosphate uptake, oocytes expressing rat NaPi-2b, determined from inhibition curve; for IC50: Xenopus oocytes expressing rat NaPi-2b, 32P radioactive phosphorus, read-out: IC50 (phosphate uptake inhibitory activity)
Description: Pharmacological Test Example 1
Experiment of Sodium-Dependent Phosphate Uptake of Xenopus oocytes which Expressed NaPi-2b
Degenerate primers were prepared from sequences of mouse NaPi-2b disclosed in Hilfiker H. et al., Pro Natl Acad Sci USA, 95 (24): 14564-14569, […] and sequences of human and rat NaPi-2a disclosed in Magagnin S. et al., Proc Natl Aca Sci USA, 90 (13): 5979-5983, 1993. RNA was extracted from the rat small intestine using ISOGEN; manufactured by NIPPON GENE CO., LTD (Japan). 400 bp gene fragments were obtained by PCR using, as a template, a cDNA library prepared with a cDNA synthesis kit (manufactured by STRATAGENE (US)). Thereafter, the above rat small intestine cDNA library was screened using the gene fragment as a probe, and the whole gene sequence of rat NaPi-2b was cloned. cRNA was synthesized from the cloned rat NaPi-2b cDNA with a cRNA synthesis kit (manufactured by Ambion (US)). The synthesized cRNA was injected into Xenopus oocytes (obtained from COPACETIC (Japan)) with a liquid microinjector (manufactured by Drummond (US)) and was cultured for 2 days to express rat NaPi-2b. Thereafter, for a group of derivatives, phosphate uptake inhibitory activity were measured using the Xenopus oocytes with ^32P radioactive phosphorus (manufactured by Daiichi Kagaku Inc. (Japan)). […] The inhibitory activity for 300 μM and 100 μM was determined from the same inhibition curve and expressed in percentage inhibition (%) in Table 5.

inhibition at 300 µM	IC50	SMILES
58.9%		CCOCCN(CCOCC)Cc1ccc(C(=O)Nc2ccc(Br)cc2C(=O)N/N=C/c2ccc(OC)cc2)cc1 [Compound 739, 4-{[Bis-(2-ethoxy-ethyl)-amino]-methyl}-N-[4-bromo-2-(4-methoxy-benzylidene-hydrazinocarbonyl)-phenyl]-benzamide]
31.2%		CCN(CC)CCN(C)Cc1cccc(C(=O)Nc2ccc(N3CCCN(C)CC3)cc2C(=O)N/N=C/c2ccc(OC)cc2)c1 [Compound 931, 3-{[(2-Diethylamino-ethyl)-methyl-amino]-methyl}-N-[2-(4-methoxy-benzylidene-hydrazinocarbonyl)-4-(4-methyl-[1,4]diazepan-1-yl)-phenyl]-benzamide]
	< 3000 nM	Cc1ccc(/C=N/NC(=O)c2cc(Br)ccc2NC(=O)c2ccc(CSc3ccncc3)cc2)cc1 [Compound 258, N-[4-Bromo-2-(4-methyl-benzylidene-hydrazinocarbonyl)-phenyl]-4-(pyridin-4-ylsulfanylmethyl)-benzamide]
	3100 nM	CCN(CC)CCN(CCN(CC)CC)Cc1cccc(C(=O)Nc2sc3c(c2C(=O)N/N=C/c2ccc(OC)cc2)CCCC3)c1 [Compound 850, 3-{[Bis-(2-diethylamino-ethyl)-amino]-methyl}-N-[3-(4-methoxy-benzylidene-hydrazinocarbonyl)-4,5,6,7-tetrahydro-benzo[b]-thiophen-2-yl]-benzamide]
	< 1000 nM	Cc1ccc(/C=N/NC(=O)c2cc(N3CCSCC3)ccc2NC(=O)c2cccc(CSCCO)c2)cc1C [Compound 926, N-[2-(3,4-Dimethyl-benzylidene-hydrazinocarbonyl)-4-thiomorpholin-4-yl-phenyl]-3-(2-hydroxy-ethylsulfanylmethyl)-benzamide]
	< 3000 nM	Cc1sc(NC(=O)c2cccc(CN(CC(C)O)CC(C)O)c2)c(C(=O)N/N=C/c2ccc(Cl)c(C(F)(F)F)c2)c1C (centres unmarked) [Compound 847, 3-{[Bis-(2-hydroxy-propyl)-amino]-methyl}-N-[3-(4-chloro-3-trifluoromethyl-benzylidene-hydrazinocarbonyl)-4,5-dimethyl-thiophen-2-yl]-benzamide]
77.3%		COc1ccc(C(=O)Nc2ccccc2C(=O)N/N=C/c2ccccc2F)cc1OC [Compound 2, N-[2-(2-Fluoro-benzylidene-hydrazinocarbonyl)-phenyl]-3,4-dimethoxy-benzamide]
	13000 nM	CCN(CC)CCN(C)Cc1cccc(C(=O)Nc2scc(C)c2C(=O)N/N=C/c2ccc(F)cc2)c1 [Compound 565, 3-{[(2-Diethylamino-ethyl)-methyl-amino]-methyl}-N-[3-(4-fluoro-benzylidene-hydrazinocarbonyl)-4-methyl-thiophen-2-yl]-benzamide]
	< 3000 nM	O=C(Nc1sc2c(c1C(=O)N/N=C/c1ccc(Cl)c(C(F)(F)F)c1)CCCC2)c1cccc(CN2CCN(CCO)CC2)c1 [Compound 625, N-[3-(4-Chloro-3-trifluoromethyl-benzylidene-hydrazinocarbonyl)-4,5,6,7-tetrahydro-benzo[b]thiophen-2-yl]-3-[4-(2-hydroxy-ethyl)-piperazin-1-ylmethyl]-benzamide]
	1980 nM	CCN(CC)CCN(C)Cc1cccc(C(=O)Nc2ccc(Cl)cc2C(=O)N/N=C/c2ccc(C)c(C)c2)c1 [Compound 383, N-[4-Chloro-2-(3,4-dimethyl-benzylidene-hydrazinocarbonyl)-phenyl]-3-{[(2-diethylamino-ethyl)-methyl-amino]-methyl}-benzamide]
	1210 nM	O=C(Nc1ccc(N2CCOCC2)cc1C(=O)N/N=C/c1ccc(Cl)c(C(F)(F)F)c1)c1cccc(CSCCO)c1 [Compound 1065, N-[2-(4-Chloro-3-trifluoromethyl-benzylidene-hydrazinocarbonyl)-4-morpholin-4-yl-phenyl]-3-(2-hydroxy-ethylsulfanylmethyl)-benzamide]
	< 3000 nM	CN(CCO)Cc1ccc(C(=O)Nc2ccc(Cl)cc2C(=O)N/N=C/c2ccc(Cl)c(C(F)(F)F)c2)cc1 [Compound 417, N-[4-Chloro-2-(4-chloro-3-trifluoromethyl-benzylidene-hydrazinocarbonyl)-phenyl]-4-{[(2-hydroxy-ethyl)-methyl-amino]-methyl}-benzamide]
78.9%		O=C(Nc1ccc(Cl)cc1C(=O)N/N=C/c1ccc(F)cc1)c1cccc(CN(CCO)CCO)c1 [Compound 550, 3-{[Bis-(2-hydroxy-ethyl)-amino]-methyl}-N-[4-chloro-2-(4-fluoro-benzylidene-hydrazinocarbonyl)-phenyl]-benzamide]
	3220 nM	CCN(CC)CCN(CCN(CC)CC)Cc1cccc(C(=O)Nc2scc(C)c2C(=O)N/N=C/c2ccc(Cl)c(C(F)(F)F)c2)c1 [Compound 842, 3-{[Bis-(2-diethylamino-ethyl)-amino]-methyl}-N-[3-(4-chloro-3-trifluoromethyl-benzylidene-hydrazinocarbonyl)-4-methyl-thiophen-2-yl]-benzamide]
	11600 nM	Cc1ccc(/C=N/NC(=O)c2cc(N3CCCC3=O)ccc2NC(=O)c2cccc(CN(CC(C)O)CC(C)O)c2)cc1 (centres unmarked) [Compound 948, 3-{[Bis-(2-hydroxy-propyl)-amino]-methyl}-N-[2-(4-methyl-benzylidene-hydrazinocarbonyl)-4-(2-oxo-pyrrolidin-1-yl)-phenyl]-benzamide]
	2160 nM	Cc1cccc(/C=N/NC(=O)c2cc(Br)ccc2NC(=O)c2ccno2)c1 [Compound 511, Isoxazole-5-carboxylic acid [4-bromo-2-(3-methyl-benzylidene-hydrazinocarbonyl)-phenyl]-amide]
	26700 nM	CN(CCO)Cc1cccc(C(=O)Nc2ccc(Cl)cc2C(=O)N/N=C/c2ccc(O)cc2)c1 [Compound 403, N-[4-Chloro-2-(4-hydroxy-benzylidene-hydrazinocarbonyl)-phenyl]-3-{[(2-hydroxy-ethyl)-methyl-amino]-methyl}-benzamide]
	7550 nM	CCOCCN(CCOCC)Cc1ccc(C(=O)Nc2ccc(Br)cc2C(=O)N/N=C/c2ccc(Cl)c(C(F)(F)F)c2)cc1 [Compound 738, 4-{[Bis-(2-ethoxy-ethyl)-amino]-methyl}-N-[4-bromo-2-(4-chloro-3-trifluoromethyl-benzylidene-hydrazinocarbonyl)-phenyl]-benzamide]
	990 nM	CCN(CC)CCN(C)Cc1cccc(C(=O)Nc2ccc(OC)cc2C(=O)N/N=C/c2ccc(Cl)c(C(F)(F)F)c2)c1 [Compound 1023, N-[2-(4-Chloro-3-trifluoromethyl-benzylidene-hydrazinocarbonyl)-4-methoxy-phenyl]-3-{[(2-diethylamino-ethyl)-methyl-amino]-methyl}-benzamide]
	1890 nM	CCN(CCO)Cc1cccc(C(=O)Nc2ccc(Cl)cc2C(=O)N/N=C/c2ccc(C)c(C)c2)c1 [Compound 426, N-[4-Chloro-2-(3,4-dimethyl-benzylidene-hydrazinocarbonyl)-phenyl]-3-{[ethyl-(2-hydroxy-ethyl)-amino]-methyl}-benzamide]
	1020 nM	Cc1ccc(/C=N/NC(=O)c2cc(Br)ccc2NC(=O)c2cccc(CSc3nc[nH]n3)c2)cc1 [Compound 268, N-[4-Bromo-2-(4-methyl-benzylidene-hydrazinocarbonyl)-phenyl]-3-(1H-[1,2,4]triazol-3-ylsulfanylmethyl)-benzamide]
	< 300 nM	Cc1ccc(/C=N/NC(=O)c2cc(Cl)ccc2NC(=O)c2cccc(CN(C)CCO)c2)cc1C [Compound 398, N-[4-Chloro-2-(3,4-dimethyl-benzylidene-hydrazinocarbonyl)-phenyl]-3-{[(2-hydroxy-ethyl)-methyl-amino]-methyl}-benzamide]
	980 nM	Cc1ccc(/C=N/NC(=O)c2cc(Br)ccc2NC(=O)c2ccccn2)cc1C [Compound 499, Pyridin-2-carboxylic acid [4-bromo-2-(3,4-dimethyl-benzylidene-hydrazinocarbonyl)-phenyl]-amide]
